The NIST ThermoML archive (doi:10.1007/s10765-009-0602-6)
Numbers after ± are expanded uncertainties.

Test: molar heat capacity at constant volume; xn = mol fraction of the nth substance listed
Settings: x1 = 0.2607

N [ammonia] + O
Settings	molar heat capacity at constant volume [J/K/mol]
508.07 K, Fluid (supercritical or subcritical phases), Mass density=671.23 kg/m3, isochoric heat capacity	68.25 ± 2.7
508.07 K, Liquid, Isochoric heat capacity	68.25 ± 2.7
508.26 K, Fluid (supercritical or subcritical phases), Mass density=671.23 kg/m3, isochoric heat capacity	68.14 ± 2.7
508.36 K, Fluid (supercritical or subcritical phases), Mass density=671.23 kg/m3, isochoric heat capacity	68.37 ± 2.7
508.45 K, Fluid (supercritical or subcritical phases), Mass density=671.23 kg/m3, isochoric heat capacity	67.54 ± 2.7
508.54 K, Fluid (supercritical or subcritical phases), Mass density=671.23 kg/m3, isochoric heat capacity	67.61 ± 2.7
508.64 K, Fluid (supercritical or subcritical phases), Mass density=671.23 kg/m3, isochoric heat capacity	67.18 ± 2.7
509.01 K, Fluid (supercritical or subcritical phases), Mass density=671.23 kg/m3, isochoric heat capacity	68.48 ± 2.7
509.11 K, Fluid (supercritical or subcritical phases), Mass density=671.23 kg/m3, isochoric heat capacity	67.7 ± 2.7
509.3 K, Fluid (supercritical or subcritical phases), Mass density=671.23 kg/m3, isochoric heat capacity	67.89 ± 2.7
509.39 K, Fluid (supercritical or subcritical phases), Mass density=671.23 kg/m3, isochoric heat capacity	66.74 ± 2.7
509.67 K, Fluid (supercritical or subcritical phases), Mass density=671.23 kg/m3, isochoric heat capacity	67.09 ± 2.7
513.42 K, Fluid (supercritical or subcritical phases), Mass density=671.23 kg/m3, isochoric heat capacity	65.53 ± 2.6
513.61 K, Fluid (supercritical or subcritical phases), Mass density=671.23 kg/m3, isochoric heat capacity	65.05 ± 2.6
513.8 K, Fluid (supercritical or subcritical phases), Mass density=671.23 kg/m3, isochoric heat capacity	65.6 ± 2.6
516.88 K, Fluid (supercritical or subcritical phases), Mass density=671.23 kg/m3, isochoric heat capacity	63.54 ± 2.5
517.07 K, Fluid (supercritical or subcritical phases), Mass density=671.23 kg/m3, isochoric heat capacity	63.15 ± 2.5
517.26 K, Fluid (supercritical or subcritical phases), Mass density=671.23 kg/m3, isochoric heat capacity	63.06 ± 2.5
517.44 K, Fluid (supercritical or subcritical phases), Mass density=671.23 kg/m3, isochoric heat capacity	63.27 ± 2.5
517.63 K, Fluid (supercritical or subcritical phases), Mass density=671.23 kg/m3, isochoric heat capacity	62.44 ± 2.5
517.82 K, Fluid (supercritical or subcritical phases), Mass density=671.23 kg/m3, isochoric heat capacity	63.49 ± 2.5
519.77 K, Fluid (supercritical or subcritical phases), Mass density=649.65 kg/m3, isochoric heat capacity	68.81 ± 2.8
519.77 K, Liquid, Isochoric heat capacity	68.81 ± 2.8
519.87 K, Fluid (supercritical or subcritical phases), Mass density=649.65 kg/m3, isochoric heat capacity	68.23 ± 2.7
520.05 K, Fluid (supercritical or subcritical phases), Mass density=649.65 kg/m3, isochoric heat capacity	65.99 ± 2.6
520.14 K, Fluid (supercritical or subcritical phases), Mass density=649.65 kg/m3, isochoric heat capacity	66.91 ± 2.7
520.24 K, Fluid (supercritical or subcritical phases), Mass density=649.65 kg/m3, isochoric heat capacity	67.27 ± 2.7
520.33 K, Fluid (supercritical or subcritical phases), Mass density=649.65 kg/m3, isochoric heat capacity	64.87 ± 2.6
520.42 K, Fluid (supercritical or subcritical phases), Mass density=649.65 kg/m3, isochoric heat capacity	66.63 ± 2.7
520.52 K, Fluid (supercritical or subcritical phases), Mass density=649.65 kg/m3, isochoric heat capacity	67.09 ± 2.7
520.79 K, Fluid (supercritical or subcritical phases), Mass density=649.65 kg/m3, isochoric heat capacity	65.87 ± 2.6
520.98 K, Fluid (supercritical or subcritical phases), Mass density=649.65 kg/m3, isochoric heat capacity	65.39 ± 2.6
521.17 K, Fluid (supercritical or subcritical phases), Mass density=649.65 kg/m3, isochoric heat capacity	66.9 ± 2.7
521.35 K, Fluid (supercritical or subcritical phases), Mass density=649.65 kg/m3, isochoric heat capacity	66.72 ± 2.7
521.45 K, Fluid (supercritical or subcritical phases), Mass density=649.65 kg/m3, isochoric heat capacity	66.06 ± 2.6
521.54 K, Fluid (supercritical or subcritical phases), Mass density=649.65 kg/m3, isochoric heat capacity	65.81 ± 2.6
526.45 K, Fluid (supercritical or subcritical phases), Mass density=649.65 kg/m3, isochoric heat capacity	63.84 ± 2.6
526.64 K, Fluid (supercritical or subcritical phases), Mass density=649.65 kg/m3, isochoric heat capacity	63.74 ± 2.6
526.82 K, Fluid (supercritical or subcritical phases), Mass density=649.65 kg/m3, isochoric heat capacity	63.43 ± 2.5
527.01 K, Fluid (supercritical or subcritical phases), Mass density=649.65 kg/m3, isochoric heat capacity	63.65 ± 2.5
527.19 K, Fluid (supercritical or subcritical phases), Mass density=649.65 kg/m3, isochoric heat capacity	62.83 ± 2.5
527.28 K, Fluid (supercritical or subcritical phases), Mass density=649.65 kg/m3, isochoric heat capacity	63.36 ± 2.5
545.62 K, Fluid (supercritical or subcritical phases), Mass density=594.32 kg/m3, isochoric heat capacity	71.3 ± 2.9
545.62 K, Liquid, Isochoric heat capacity	71.3 ± 2.9
545.71 K, Fluid (supercritical or subcritical phases), Mass density=594.32 kg/m3, isochoric heat capacity	69.65 ± 2.8
545.8 K, Fluid (supercritical or subcritical phases), Mass density=594.32 kg/m3, isochoric heat capacity	69.15 ± 2.8
546.08 K, Fluid (supercritical or subcritical phases), Mass density=594.32 kg/m3, isochoric heat capacity	68.46 ± 2.7
546.17 K, Fluid (supercritical or subcritical phases), Mass density=594.32 kg/m3, isochoric heat capacity	67.48 ± 2.7
546.35 K, Fluid (supercritical or subcritical phases), Mass density=594.32 kg/m3, isochoric heat capacity	68.48 ± 2.7
546.62 K, Fluid (supercritical or subcritical phases), Mass density=594.32 kg/m3, isochoric heat capacity	67.15 ± 2.7
546.71 K, Fluid (supercritical or subcritical phases), Mass density=594.32 kg/m3, isochoric heat capacity	66.47 ± 2.7
547.07 K, Fluid (supercritical or subcritical phases), Mass density=594.32 kg/m3, isochoric heat capacity	65.62 ± 2.6
547.17 K, Fluid (supercritical or subcritical phases), Mass density=594.32 kg/m3, isochoric heat capacity	66.33 ± 2.6
547.5 K, Fluid (supercritical or subcritical phases), Mass density=594.32 kg/m3, isochoric heat capacity	65.53 ± 2.6
547.79 K, Fluid (supercritical or subcritical phases), Mass density=594.32 kg/m3, isochoric heat capacity	65.46 ± 2.6
547.98 K, Fluid (supercritical or subcritical phases), Mass density=594.32 kg/m3, isochoric heat capacity	63.91 ± 2.6
549.8 K, Fluid (supercritical or subcritical phases), Mass density=594.32 kg/m3, isochoric heat capacity	63.77 ± 2.6
549.98 K, Fluid (supercritical or subcritical phases), Mass density=594.32 kg/m3, isochoric heat capacity	62.97 ± 2.5
550.07 K, Fluid (supercritical or subcritical phases), Mass density=594.32 kg/m3, isochoric heat capacity	63.74 ± 2.6
550.16 K, Fluid (supercritical or subcritical phases), Mass density=594.32 kg/m3, isochoric heat capacity	63.45 ± 2.5
550.34 K, Fluid (supercritical or subcritical phases), Mass density=594.32 kg/m3, isochoric heat capacity	63.56 ± 2.5
561.03 K, Fluid (supercritical or subcritical phases), Mass density=552.58 kg/m3, isochoric heat capacity	73.2 ± 2.9
561.03 K, Liquid, Isochoric heat capacity	73.2 ± 2.9
561.19 K, Fluid (supercritical or subcritical phases), Mass density=552.58 kg/m3, isochoric heat capacity	70.73 ± 2.9
561.25 K, Fluid (supercritical or subcritical phases), Mass density=552.58 kg/m3, isochoric heat capacity	66.7 ± 2.7
561.34 K, Fluid (supercritical or subcritical phases), Mass density=552.58 kg/m3, isochoric heat capacity	64.8 ± 2.6
561.52 K, Fluid (supercritical or subcritical phases), Mass density=552.58 kg/m3, isochoric heat capacity	64.06 ± 2.6
561.61 K, Fluid (supercritical or subcritical phases), Mass density=552.58 kg/m3, isochoric heat capacity	62.44 ± 2.5
561.7 K, Fluid (supercritical or subcritical phases), Mass density=552.58 kg/m3, isochoric heat capacity	64.39 ± 2.6
561.88 K, Fluid (supercritical or subcritical phases), Mass density=552.58 kg/m3, isochoric heat capacity	63.24 ± 2.5
561.97 K, Fluid (supercritical or subcritical phases), Mass density=552.58 kg/m3, isochoric heat capacity	62.79 ± 2.5
562.06 K, Fluid (supercritical or subcritical phases), Mass density=552.58 kg/m3, isochoric heat capacity	61.43 ± 2.5
565.36 K, Liquid, Isochoric heat capacity	73.52 ± 2.9
580.18 K, Fluid (supercritical or subcritical phases), Mass density=476.25 kg/m3, isochoric heat capacity	77.25 ± 3.1
580.18 K, Liquid, Isochoric heat capacity	77.25 ± 3.1
580.21 K, Fluid (supercritical or subcritical phases), Mass density=476.25 kg/m3, isochoric heat capacity	73.61 ± 3
580.3 K, Fluid (supercritical or subcritical phases), Mass density=476.25 kg/m3, isochoric heat capacity	69.74 ± 2.8
580.56 K, Fluid (supercritical or subcritical phases), Mass density=476.25 kg/m3, isochoric heat capacity	68.42 ± 2.8
580.74 K, Fluid (supercritical or subcritical phases), Mass density=476.25 kg/m3, isochoric heat capacity	68.46 ± 2.7
580.92 K, Fluid (supercritical or subcritical phases), Mass density=476.25 kg/m3, isochoric heat capacity	67.84 ± 2.7
581.01 K, Fluid (supercritical or subcritical phases), Mass density=476.25 kg/m3, isochoric heat capacity	68.48 ± 2.7
